Data: ChEMBL document CHEMBL1201862, “PubChem BioAssay data set” (2004)
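96-well plates; 48 h exposure; 5 concentrations. Endpoints by linear interpolation between flanking doses. Not reached: highest tested concentration assigned. GI50: concentration for 50% inhibition of growth.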 The source made the active and inactive calls. Cut-off read from the data, not from the text of the source: active = GI50 up to about 1.1 µM and inactive = higher.

What was measured:
Assay in all cases: growth of human tumour cells (NCI), 48 h
HCT-15 = system: HCT-15
NCI-H23 = system: NCI-H23
UACC-257 = system: UACC-257
SF-268 = system: SF-268
OVCAR-8 = system: OVCAR-8
SN12C = system: SN12C
OVCAR-3 = system: OVCAR-3
DU-145 = system: DU-145
NCI-H460 = system: NCI-H460
SF-295 = system: SF-295
HT-29 = system: HT-29
RXF 393 = system: RXF 393
NCI-H522 = system: NCI-H522
M14 = system: M14
SNB-19 = system: SNB-19
SNB-75 = system: SNB-75
K562 = system: K562
T47D = system: T47D
SK-MEL-2 = system: SK-MEL-2
Malme-3M = system: Malme-3M

Structure (SMILES)	GI50 (HCT-15) [µM]	GI50 (NCI-H23)	GI50 (UACC-257)	GI50 (SF-268)	GI50 (OVCAR-8)	GI50 (SN12C)	GI50 (OVCAR-3)	GI50 (DU-145)	GI50 (NCI-H460)	GI50 (SF-295)	GI50 (HT-29)	GI50 (RXF 393)	GI50 (NCI-H522)	GI50 (M14)	GI50 (SNB-19)	GI50 (SNB-75)	GI50 (K562)	GI50 (T47D)	GI50 (SK-MEL-2)	GI50 (Malme-3M)
CCCCCCCCCCCC1=NCCN1	15.1	93.8 µM (inactive)	> 100 µM (inactive)	> 100 µM (inactive)	> 100 µM (inactive)	77.6 µM (inactive)	95.3 µM (inactive)	74.1 µM (inactive)	30.1 µM (inactive)	87.7 µM (inactive)	> 100 µM (inactive)	> 100 µM (inactive)	26.5 µM (inactive)	> 100 µM (inactive)	> 100 µM (inactive)	32 µM (inactive)	39.6 µM (inactive)	73.3 µM (inactive)		
CCOc1c(/N=N/c2ccccc2Cl)c(-c2ccccc2)nn1C(=S)S	23.1	30.3 µM (inactive)	50.6 µM (inactive)	> 100 µM (inactive)	54 µM (inactive)	9.06 µM (inactive)	25 µM (inactive)	> 100 µM (inactive)	45.2 µM (inactive)	33.6 µM (inactive)	25.2 µM (inactive)	39.9 µM (inactive)	25.2 µM (inactive)	47.9 µM (inactive)	> 100 µM (inactive)	> 100 µM (inactive)	19 µM (inactive)	22.2 µM (inactive)	34.8 µM (inactive)	37.2 µM (inactive)
Brc1cccc(Nc2ncnc3sc4c(c23)CCC(Nc2cccc(Br)c2)C4)c1 (stereo not drawn)	> 100	> 100 µM (inactive)	> 100 µM (inactive)	> 100 µM (inactive)	> 100 µM (inactive)	> 100 µM (inactive)	> 100 µM (inactive)	> 100 µM (inactive)	> 100 µM (inactive)	> 100 µM (inactive)	> 100 µM (inactive)	> 100 µM (inactive)	> 100 µM (inactive)	> 100 µM (inactive)	> 100 µM (inactive)	65.9 µM (inactive)	> 100 µM (inactive)	6.55 µM (inactive)	> 100 µM (inactive)	> 100 µM (inactive)
CC(=O)/N=C1/N(/C=C2\C(=O)Oc3ccccc3C2=O)C(=O)/C(=C/c2ccc(NC(C)=O)cc2)N1C	> 100	> 100 µM (inactive)	> 100 µM (inactive)	> 100 µM (inactive)	> 100 µM (inactive)	> 100 µM (inactive)	76 µM (inactive)	> 100 µM (inactive)	> 100 µM (inactive)	> 100 µM (inactive)	> 100 µM (inactive)	> 100 µM (inactive)	47.9 µM (inactive)	> 100 µM (inactive)		84.9 µM (inactive)	> 100 µM (inactive)	> 100 µM (inactive)	> 100 µM (inactive)	> 100 µM (inactive)
O=C(Nc1cccc(C(=O)NCCCO)c1)/C(=C/c1ccccc1)NC(=O)c1ccccc1	> 100	> 100 µM (inactive)	> 100 µM (inactive)	> 100 µM (inactive)	> 100 µM (inactive)	> 100 µM (inactive)	> 100 µM (inactive)	> 100 µM (inactive)	> 100 µM (inactive)	> 100 µM (inactive)	> 100 µM (inactive)	> 100 µM (inactive)	> 100 µM (inactive)	> 100 µM (inactive)	> 100 µM (inactive)	> 100 µM (inactive)	> 100 µM (inactive)	> 100 µM (inactive)	> 100 µM (inactive)	> 100 µM (inactive)
Cc1ccc(S(=O)(=O)N2CCCSCC2)cc1	> 100	> 100 µM (inactive)	> 100 µM (inactive)	> 100 µM (inactive)	> 100 µM (inactive)	> 100 µM (inactive)		> 100 µM (inactive)	> 100 µM (inactive)	> 100 µM (inactive)	> 100 µM (inactive)	62.7 µM (inactive)	> 100 µM (inactive)		> 100 µM (inactive)	61.7 µM (inactive)	> 100 µM (inactive)	> 100 µM (inactive)		
COc1ccc(CC2CCc3nc(N)nc(N)c3C2)cc1OC (stereo not drawn)	0.104	0.564 µM (active)	15.3 µM (inactive)	0.173 µM (active)	14.6 µM (inactive)	22.9 µM (inactive)	5.47 µM (inactive)	0.681 µM (active)	0.0411 µM (active)	0.168 µM (active)	1.79 µM (inactive)	0.0292 µM (active)	0.489 µM (active)	0.851 µM (active)		1.46 µM (inactive)	18.3 µM (inactive)	18.9 µM (inactive)	> 57.3 µM (inactive)	0.83 µM (active)
C=C1c2nc3ccccc3n2C=C(c2ccccc2)N1c1ccc([N+](=O)[O-])cc1	5.75	9.38 µM (inactive)	15.3 µM (inactive)	8.11 µM (inactive)	4.49 µM (inactive)	7.89 µM (inactive)	7.06 µM (inactive)	6.92 µM (inactive)	1.72 µM (inactive)	3.37 µM (inactive)	3.47 µM (inactive)	3.01 µM (inactive)	3.67 µM (inactive)	8.57 µM (inactive)	5.65 µM (inactive)	3.15 µM (inactive)	7.35 µM (inactive)	6.25 µM (inactive)	17.7 µM (inactive)	3.01 µM (inactive)
COc1cccc(/C=C/C(=O)N2CC(CCl)c3c2cc(N)c2ccccc32)c1 (stereo not drawn)	0.034	0.00065 µM (active)	0.0193 µM (active)	0.000693 µM (active)	0.00109 µM (active)	0.00357 µM (active)	< 0.01 µM (active)	0.00018 µM (active)	0.000115 µM (active)	0.00114 µM (active)	< 0.01 µM (active)	0.00132 µM (active)	0.00045 µM (active)	0.00957 µM (active)	0.0059 µM (active)	0.00237 µM (active)	< 0.01 µM (active)	0.0034 µM (active)	0.00834 µM (active)	< 0.01 µM (active)
CCc1c(-c2ccccc2)[nH]c2ccccc2c1=O	28.2	55.3 µM (inactive)	64.7 µM (inactive)	80.7 µM (inactive)		> 100 µM (inactive)	54.1 µM (inactive)	76.9 µM (inactive)	5.16 µM (inactive)		57.7 µM (inactive)	27.1 µM (inactive)		35.6 µM (inactive)	> 100 µM (inactive)		28.6 µM (inactive)	46.5 µM (inactive)	71.1 µM (inactive)	72.4 µM (inactive)
